Measurements: PubChem BioAssay (NCI)
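48-hour exposure; five concentrations; linearly interpolated endpoints. TGI: concentration producing complete growth inhibition.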

What was measured:
Assay in all cases: growth of human tumour cells (NCI), 48 h
HOP-62 NSCLC = test system: HOP-62 NSCLC
OVCAR-4 ovarian = test system: OVCAR-4 ovarian
NCI-H460 lung = test system: NCI-H460 lung
HT29 colon = test system: HT29 colon
OVCAR-5 ovarian = test system: OVCAR-5 ovarian
SNB-75 CNS = test system: SNB-75 CNS
SF-295 CNS = test system: SF-295 CNS
UACC-62 melanoma = test system: UACC-62 melanoma
MCF7 breast = test system: MCF7 breast
DU-145 prostate = test system: DU-145 prostate
HOP-92 NSCLC = test system: HOP-92 NSCLC
SK-MEL-28 melanoma = test system: SK-MEL-28 melanoma
A498 renal = test system: A498 renal
786-0 renal = test system: 786-0 renal
KM20L2 colon = test system: KM20L2 colon
RPMI-8226 leukemia = test system: RPMI-8226 leukemia
CAKI-1 renal = test system: CAKI-1 renal
HOP-18 NSCLC = test system: HOP-18 NSCLC
HCT-15 colon = test system: HCT-15 colon
SN12C renal = test system: SN12C renal
HCC-2998 colon = test system: HCC-2998 colon
NCI/ADR-RES ovarian = test system: NCI/ADR-RES ovarian
MDA-MB-435 = test system: MDA-MB-435
TK-10 renal = test system: TK-10 renal
UO-31 renal = test system: UO-31 renal
MDA-MB-231 breast = test system: MDA-MB-231 breast
SK-OV-3 ovarian = test system: SK-OV-3 ovarian
NCI-H23 lung = test system: NCI-H23 lung
SW-620 colon = test system: SW-620 colon
OVCAR-8 ovarian = test system: OVCAR-8 ovarian
PC-3 prostate = test system: PC-3 prostate
DLD-1 colon = test system: DLD-1 colon
HL-60(TB) leukemia = test system: HL-60(TB) leukemia
NCI-H522 lung = test system: NCI-H522 lung
SR leukemia = test system: SR leukemia
T-47D breast = test system: T-47D breast
IGROV1 ovarian = test system: IGROV1 ovarian
COLO 205 colon = test system: COLO 205 colon
MALME-3M melanoma = test system: MALME-3M melanoma
SF-268 CNS = test system: SF-268 CNS
SK-MEL-2 melanoma = test system: SK-MEL-2 melanoma
NCI-H226 lung = test system: NCI-H226 lung
CCRF-CEM leukemia = test system: CCRF-CEM leukemia
SF-539 CNS = test system: SF-539 CNS
M19-MEL melanoma = test system: M19-MEL melanoma
OVCAR-3 ovarian = test system: OVCAR-3 ovarian
RXF 393 renal = test system: RXF 393 renal
SNB-19 CNS = test system: SNB-19 CNS
ACHN renal = test system: ACHN renal
LXFL 529 NSCLC = test system: LXFL 529 NSCLC
DMS 273 small cell lung = test system: DMS 273 small cell lung
K-562 leukemia = test system: K-562 leukemia
M14 melanoma = test system: M14 melanoma
SNB-78 CNS = test system: SNB-78 CNS
LOX IMVI melanoma = test system: LOX IMVI melanoma
EKVX NSCLC = test system: EKVX NSCLC
U251 CNS = test system: U251 CNS
MDA-N = test system: MDA-N
UACC-257 melanoma = test system: UACC-257 melanoma
BT-549 breast = test system: BT-549 breast
MOLT-4 leukemia = test system: MOLT-4 leukemia
HCT-116 colon = test system: HCT-116 colon
HS 578T breast = test system: HS 578T breast
A549 NSCLC = test system: A549 NSCLC
KM12 colon = test system: KM12 colon
SK-MEL-5 melanoma = test system: SK-MEL-5 melanoma
XF 498 CNS = test system: XF 498 CNS
DMS 114 small cell lung = test system: DMS 114 small cell lung

CCCCCCCCCCCCCCCC(=O)OCC1OC(n2ccc(N)nc2=O)C(O)C1O (stereo not drawn)
TGI (HOP-62 NSCLC): > 66.6 µM | TGI (OVCAR-4 ovarian): > 100 µM | TGI (NCI-H460 lung): > 40.6 µM | TGI (HT29 colon): > 100 µM | TGI (OVCAR-5 ovarian): > 100 µM | TGI (SNB-75 CNS): > 100 µM | TGI (SF-295 CNS): > 100 µM | TGI (UACC-62 melanoma): > 100 µM | TGI (MCF7 breast): > 100 µM | TGI (DU-145 prostate): 67.2 µM | TGI (HOP-92 NSCLC): > 100 µM | TGI (SK-MEL-28 melanoma): > 100 µM | TGI (A498 renal): > 100 µM | TGI (786-0 renal): > 50.5 µM | TGI (KM20L2 colon): > 100 µM | TGI (RPMI-8226 leukemia): > 100 µM | TGI (CAKI-1 renal): > 100 µM | TGI (HOP-18 NSCLC): > 100 µM | TGI (HCT-15 colon): > 100 µM | TGI (SN12C renal): > 100 µM | TGI (HCC-2998 colon): > 100 µM | TGI (NCI/ADR-RES ovarian): > 100 µM | TGI (MDA-MB-435): > 100 µM | TGI (TK-10 renal): > 100 µM | TGI (UO-31 renal): > 44.7 µM | TGI (MDA-MB-231 breast): > 100 µM | TGI (SK-OV-3 ovarian): > 100 µM | TGI (NCI-H23 lung): > 41.6 µM | TGI (SW-620 colon): > 100 µM | TGI (OVCAR-8 ovarian): > 100 µM | TGI (PC-3 prostate): > 100 µM | TGI (DLD-1 colon): > 100 µM | TGI (HL-60(TB) leukemia): > 61.8 µM | TGI (NCI-H522 lung): > 100 µM | TGI (SR leukemia): 84.5 µM | TGI (T-47D breast): > 100 µM | TGI (IGROV1 ovarian): > 100 µM | TGI (COLO 205 colon): > 100 µM | TGI (MALME-3M melanoma): > 54.6 µM | TGI (SF-268 CNS): > 100 µM | TGI (SK-MEL-2 melanoma): > 100 µM | TGI (NCI-H226 lung): > 100 µM | TGI (CCRF-CEM leukemia): 8.85 µM | TGI (SF-539 CNS): > 100 µM | TGI (M19-MEL melanoma): > 100 µM | TGI (OVCAR-3 ovarian): > 97 µM | TGI (RXF 393 renal): > 100 µM | TGI (SNB-19 CNS): > 100 µM | TGI (ACHN renal): > 44.2 µM | TGI (LXFL 529 NSCLC): > 100 µM | TGI (DMS 273 small cell lung): > 100 µM | TGI (K-562 leukemia): > 100 µM | TGI (M14 melanoma): 33.7 µM | TGI (SNB-78 CNS): > 100 µM | TGI (LOX IMVI melanoma): > 100 µM | TGI (EKVX NSCLC): > 100 µM | TGI (U251 CNS): > 100 µM | TGI (MDA-N): > 100 µM | TGI (UACC-257 melanoma): > 100 µM | TGI (BT-549 breast): > 100 µM | TGI (MOLT-4 leukemia): 44.8 µM | TGI (HCT-116 colon): > 100 µM | TGI (HS 578T breast): > 100 µM | TGI (A549 NSCLC): > 100 µM | TGI (KM12 colon): > 100 µM | TGI (SK-MEL-5 melanoma): > 100 µM | TGI (XF 498 CNS): > 100 µM

COc1cc2c(c(OC)c1OC)-c1ccc(SC)c(=O)cc1[C@@H](NC(=O)c1ccc(C#N)cc1)CC2
TGI (HOP-62 NSCLC): 56.4 µM | TGI (OVCAR-4 ovarian): > 100 µM | TGI (NCI-H460 lung): < 0.01 µM | TGI (HT29 colon): < 0.01 µM | TGI (SNB-75 CNS): 92.4 µM | TGI (SF-295 CNS): < 0.01 µM | TGI (UACC-62 melanoma): > 100 µM | TGI (HOP-92 NSCLC): 10.6 µM | TGI (SK-MEL-28 melanoma): > 100 µM | TGI (786-0 renal): 20.9 µM | TGI (KM20L2 colon): < 0.01 µM | TGI (RPMI-8226 leukemia): > 100 µM | TGI (HCT-15 colon): > 100 µM | TGI (SN12C renal): > 77.8 µM | TGI (HCC-2998 colon): < 0.01 µM | TGI (TK-10 renal): > 100 µM | TGI (UO-31 renal): > 100 µM | TGI (NCI-H23 lung): < 0.01 µM | TGI (SW-620 colon): > 100 µM | TGI (OVCAR-8 ovarian): 12.9 µM | TGI (DLD-1 colon): > 100 µM | TGI (NCI-H522 lung): < 0.01 µM | TGI (SR leukemia): > 100 µM | TGI (IGROV1 ovarian): > 100 µM | TGI (COLO 205 colon): < 0.01 µM | TGI (DMS 114 small cell lung): < 0.01 µM | TGI (MALME-3M melanoma): 96.9 µM | TGI (SF-268 CNS): > 48.7 µM | TGI (SK-MEL-2 melanoma): 6.58 µM | TGI (NCI-H226 lung): < 0.01 µM | TGI (SF-539 CNS): < 0.01 µM | TGI (M19-MEL melanoma): > 100 µM | TGI (OVCAR-3 ovarian): < 0.0108 µM | TGI (ACHN renal): > 100 µM | TGI (LXFL 529 NSCLC): 18.3 µM | TGI (DMS 273 small cell lung): > 46.3 µM | TGI (K-562 leukemia): > 100 µM | TGI (SNB-78 CNS): 83.7 µM | TGI (LOX IMVI melanoma): 36.7 µM | TGI (EKVX NSCLC): > 100 µM | TGI (U251 CNS): < 0.0316 µM | TGI (UACC-257 melanoma): > 100 µM | TGI (MOLT-4 leukemia): > 53.8 µM | TGI (HCT-116 colon): 12.6 µM | TGI (A549 NSCLC): > 100 µM | TGI (SK-MEL-5 melanoma): < 0.01 µM
